Among the data in ChEMBL document CHEMBL5055653, “Synthesis, microbiological evaluation and structure activity relationship analysis of linezolid analogues with different C5-acylamino substituents” (2021) are MIC and Activity values, retold here.

≈ marks a conversion by molar mass, not a printed value. Calls of active or inactive are those of the source. No cut-off for these calls is given here.

The subject of assay [1] is Pseudomonas aeruginosa. The assay is described as follows: Antibacterial activity against Pseudomonas aeruginosa PAO1 assessed as reduction in bacterial growth incubated for 20 hrs in presence of PMBN by microplate reader method. It counts as functional.
The test system of another assay is Escherichia coli. Description: Antibacterial activity against Escherichia coli NCTC 12923 assessed as reduction in bacterial growth incubated for 20 hrs in presence of PMBN by microplate reader method. It is filed as functional, organism-based.
Assay [2] has as its system Staphylococcus aureus. Description: Antibacterial activity against Staphylococcus aureus 1199B assessed as reduction in bacterial growth incubated for 20 hrs by microplate reader method. It counts as functional.
Assay [3] has as its system Staphylococcus aureus. Description: Antibacterial activity against Staphylococcus aureus ATCC 9144 assessed as reduction in bacterial growth incubated for 20 hrs by microplate reader method. It is filed as functional.
In assay [4] the test system is Enterococcus faecalis. Description: Antibacterial activity against Vanomycin-sensitive Enterococcus faecalis NCTC 775 assessed as reduction in bacterial growth incubated for 20 hrs by microplate reader method. It is filed as functional.
For assay [5], the system named is Staphylococcus aureus. The assay is described as follows: Antibacterial activity against Staphylococcus aureus USA 300 assessed as reduction in bacterial growth incubated for 20 hrs by microplate reader method. It is filed as functional.
Assay [6] concerns Acinetobacter baumannii. The assay is described as follows: Antibacterial activity against Acinetobacter baumannii ATCC 17978 assessed as reduction in bacterial growth incubated for 20 hrs in presence of PMBN by microplate reader method. It counts as functional, organism-based.
Assay [7] concerns Acinetobacter baumannii. The assay is described as follows: Antibacterial activity against Acinetobacter baumannii AYE assessed as reduction in bacterial growth incubated for 20 hrs in presence of PMBN by microplate reader method. It is filed as functional, organism-based.
Assay [8] relates to Staphylococcus aureus. Description: Antibacterial activity against Staphylococcus aureus NCTC 13616 assessed as reduction in bacterial growth incubated for 20 hrs by microplate reader method. It is filed as functional.
Assay [9] relates to Pseudomonas aeruginosa. The assay is described as follows: Antibacterial activity against Pseudomonas aeruginosa NCTC 13437 assessed as reduction in bacterial growth incubated for 20 hrs in presence of PMBN by microplate reader method. It is filed as functional, organism-based.
Another assay relates to Enterococcus faecium. Description: Antibacterial activity against Vanomycin-resistant Enterococcus faecium NCTC 12204 assessed as reduction in bacterial growth incubated for 20 hrs by microplate reader method. It is filed as functional.
Assay [10] relates to Enterococcus faecalis. The assay is described as follows: Antibacterial activity against Vanomycin-resistant Enterococcus faecalis NCTC 12201 assessed as reduction in bacterial growth incubated for 20 hrs by microplate reader method. It is filed as functional.

As a reminder, the MIC is the lowest concentration that inhibits growth of the organism. For `O=C(NC[C@H]1CN(c2ccc(N3CCOCC3)c(F)c2)C(=O)O1)c1cnc(Br)s1`, the minimal inhibitory concentration (MIC) in the assay with Pseudomonas aeruginosa [1] came to 16 µg/mL; in the assay with Staphylococcus aureus [2], 32 µg/mL (≈ 65.9 µM); in the assay on Staphylococcus aureus [3], 16 µg/mL (≈ 33 µM); in the assay on Enterococcus faecalis [4], 32 µg/mL (≈ 65.9 µM); with Staphylococcus aureus [5] it was 32 µg/mL (≈ 65.9 µM); in the assay with Staphylococcus aureus [8], 16 µg/mL (≈ 33 µM). The MIC worked out at 8 µg/mL (≈ 16.5 µM) with Enterococcus faecium and 16 µg/mL (≈ 33 µM) in the assay on Enterococcus faecalis [10]. The outcome in the assay with Escherichia coli, with Acinetobacter baumannii [6], in the assay with Acinetobacter baumannii [7] and in the assay with Pseudomonas aeruginosa [9] was inactive.
Regarding `O=C(NC[C@H]1CN(c2ccc(N3CCOCC3)c(F)c2)C(=O)O1)c1cnco1`, the outcome in the assay on Pseudomonas aeruginosa [1], in the assay with Escherichia coli, in the assay on Acinetobacter baumannii [6], in the assay on Acinetobacter baumannii [7] and in the assay with Pseudomonas aeruginosa [9] was inactive. The minimum inhibitory concentration (MIC) in the assay on Staphylococcus aureus [2] is 128 µg/mL (≈ 328 µM); with Staphylococcus aureus [3], 128 µg/mL (≈ 328 µM); in the assay with Enterococcus faecalis [4] it was 64 µg/mL (≈ 164 µM); in the assay on Staphylococcus aureus [5], greater than 128 µg/mL; in the assay on Staphylococcus aureus [8] it was 128 µg/mL (≈ 328 µM); in the assay with Enterococcus faecium it was 128 µg/mL (≈ 328 µM). Further, the MIC in the assay with Enterococcus faecalis [10] was 128 µg/mL (≈ 328 µM).
For the molecule `O=C(NC[C@H]1CN(c2ccc(N3CCOCC3)c(F)c2)C(=O)O1)[C@@H]1CCNC1`, the result in the assay with Pseudomonas aeruginosa [1], with Escherichia coli, in the assay on Acinetobacter baumannii [6], in the assay on Acinetobacter baumannii [7] and in the assay on Pseudomonas aeruginosa [9] was inactive. Further, the minimum inhibitory concentration (MIC) in the assay on Staphylococcus aureus [2], with Staphylococcus aureus [3], with Enterococcus faecalis [4], in the assay with Staphylococcus aureus [5], in the assay on Staphylococcus aureus [8] and in the assay on Enterococcus faecium was greater than 128 µg/mL throughout. Moreover, the minimum inhibitory concentration (MIC) in the assay with Enterococcus faecalis [10] is greater than 128 µg/mL.
As for `O=C(NC[C@H]1CN(c2ccc(N3CCOCC3)c(F)c2)C(=O)O1)c1cccs1`, the MIC with Pseudomonas aeruginosa [1] turned out to be 16 µg/mL; in the assay with Staphylococcus aureus [2], 8 µg/mL (≈ 19.7 µM); in the assay with Staphylococcus aureus [3], 16 µg/mL (≈ 39.5 µM); with Enterococcus faecalis [4], 16 µg/mL (≈ 39.5 µM); in the assay with Staphylococcus aureus [5] it was 16 µg/mL (≈ 39.5 µM); in the assay on Staphylococcus aureus [8], 16 µg/mL (≈ 39.5 µM). For the same molecule, the minimal inhibitory concentration (MIC) with Enterococcus faecium and with Enterococcus faecalis [10] was 8 µg/mL (≈ 19.7 µM) each time. Further, the outcome with Escherichia coli, in the assay with Acinetobacter baumannii [6], in the assay on Acinetobacter baumannii [7] and in the assay on Pseudomonas aeruginosa [9] was inactive.
Take `O=C(NC[C@H]1CN(c2ccc(N3CCOCC3)c(F)c2)C(=O)O1)[C@H]1CCNC1`: the result in the assay with Pseudomonas aeruginosa [1], in the assay with Escherichia coli, in the assay on Acinetobacter baumannii [6], in the assay on Acinetobacter baumannii [7] and in the assay with Pseudomonas aeruginosa [9] was inactive. Also, the MIC with Staphylococcus aureus [2], with Staphylococcus aureus [3], in the assay on Enterococcus faecalis [4], in the assay with Staphylococcus aureus [5], in the assay with Staphylococcus aureus [8] and with Enterococcus faecium was greater than 128 µg/mL throughout. Further, in the assay with Enterococcus faecalis [10], the MIC is greater than 128 µg/mL.
For the molecule `O=C(NC[C@H]1CN(c2ccc(N3CCOCC3)c(F)c2)C(=O)O1)c1cncs1`, the MIC with Pseudomonas aeruginosa [1] was found to be 16 µg/mL; in the assay on Staphylococcus aureus [2], 16 µg/mL (≈ 39.4 µM); in the assay with Staphylococcus aureus [3], 16 µg/mL (≈ 39.4 µM); in the assay with Enterococcus faecalis [4], 16 µg/mL (≈ 39.4 µM); with Staphylococcus aureus [5] it was 16 µg/mL (≈ 39.4 µM); in the assay with Staphylococcus aureus [8] it was 16 µg/mL (≈ 39.4 µM). Moreover, the MIC in the assay with Enterococcus faecium and in the assay on Enterococcus faecalis [10] was 16 µg/mL (≈ 39.4 µM) throughout. Moreover, the outcome in the assay with Escherichia coli, in the assay on Acinetobacter baumannii [6], in the assay with Acinetobacter baumannii [7] and with Pseudomonas aeruginosa [9] was inactive.
On to `Cc1ncsc1C(=O)NC[C@H]1CN(c2ccc(N3CCOCC3)c(F)c2)C(=O)O1`, for which the minimal inhibitory concentration (MIC) with Pseudomonas aeruginosa [1] was found to be 16 µg/mL; with Staphylococcus aureus [2], 32 µg/mL (≈ 76.1 µM); in the assay on Staphylococcus aureus [3], 16 µg/mL (≈ 38.1 µM); with Enterococcus faecalis [4], 32 µg/mL (≈ 76.1 µM); in the assay on Staphylococcus aureus [5] it was 16 µg/mL (≈ 38.1 µM); in the assay with Staphylococcus aureus [8] it was 16 µg/mL (≈ 38.1 µM). Moreover, the MIC with Enterococcus faecium and in the assay on Enterococcus faecalis [10] was 16 µg/mL (≈ 38.1 µM) throughout. In addition, the result with Escherichia coli, in the assay on Acinetobacter baumannii [6], in the assay on Acinetobacter baumannii [7] and in the assay on Pseudomonas aeruginosa [9] was inactive.
As to `Cc1nc(Br)sc1C(=O)NC[C@H]1CN(c2ccc(N3CCOCC3)c(F)c2)C(=O)O1`, the MIC in the assay on Staphylococcus aureus [2] came out at 16 µg/mL (≈ 32 µM); with Staphylococcus aureus [3], 16 µg/mL (≈ 32 µM); with Enterococcus faecalis [4], 32 µg/mL (≈ 64.1 µM); with Staphylococcus aureus [5], 16 µg/mL (≈ 32 µM); with Staphylococcus aureus [8], 16 µg/mL (≈ 32 µM); with Enterococcus faecium, 32 µg/mL (≈ 64.1 µM). In the assay on Enterococcus faecalis [10], the MIC came out at 32 µg/mL (≈ 64.1 µM).
